According to the supplement of paper PMC10307832:

Assays:
Assay in all cases: relative viability (nuclei count vs DMSO), 5 days (fraction); higher = more cells survive
IPA-3 = compound: C1=CC=C2C(=C1)C=CC(=C2SSC3=C(C=CC4=CC=CC=C43)O)O [IPA-3]
Summary of the method: (§1)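 Lung cancer cell lines in 1536-well plates were exposed by pinning to five library-drug doses (not always all listed) √10 apart, following an overnight hold at 37 °C. MetaXpress counted Hoechst-stained nuclei from 4× images taken after 5 days without medium change. Viability is the median ratio of treated-well to vehicle-well nuclei across plates. Plates required control CV below 25% and at least one doubling.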

Doramapimod = compound: Cc1ccc(-n2nc(C(C)(C)C)cc2NC(=O)Nc2ccc(OCCN3CCOCC3)c3ccccc23)cc1 [Doramapimod]
Summary of the method: as §1

RAF265 = compound: Cn1c(Nc2ccc(C(F)(F)F)cc2)nc2cc(Oc3ccnc(-c4ncc(C(F)(F)F)[nH]4)c3)ccc21 [RAF265]
Summary of the method: as §1

Cell Line | relative viability (IPA-3; 0.2 µM) | relative viability (IPA-3; 0.6325 µM) | relative viability (IPA-3; 2 µM) | relative viability (IPA-3; 6.325 µM) | relative viability (IPA-3; 20 µM) | relative viability (Doramapimod; 0.02 µM) | relative viability (Doramapimod; 0.06325 µM) | relative viability (Doramapimod; 0.2 µM) | relative viability (Doramapimod; 0.6325 µM) | relative viability (Doramapimod; 2 µM) | relative viability (RAF265; 0.01 µM) | relative viability (RAF265; 0.03162 µM) | relative viability (RAF265; 0.1 µM) | relative viability (RAF265; 0.3162 µM) | relative viability (RAF265; 1 µM)
201T | 0.998 | 0.975 | 0.958 | 0.993 | 1.09 | 1 | 1.02 | 0.975 | 1.15 | 0.957 | 1.04 | 0.99 | 1.02 | 0.977 | 0.992
A549 | 1.18 | 0.962 | 1.01 | 1.05 | 1.16 | 0.956 | 0.976 | 0.951 | 0.999 | 0.878 | 1.01 | 0.926 | 0.967 | 0.667 | 0.412
A-427 | 1.14 | 0.965 | 0.976 | 0.962 | 1.11 | 0.962 | 1.03 | 1.1 |  | 0.985 | 1.03 | 0.862 | 1.01 | 0.575 | 0.356
ABC-1 | 1.08 | 0.972 | 0.805 | 1.04 | 1.02 | 0.996 | 0.864 | 0.955 | 0.895 | 0.961 | 1.22 | 0.881 | 0.986 | 0.803 | 0.633
BEN | 0.982 | 0.951 | 1.07 | 0.943 | 1.15 | 0.874 | 0.922 | 1 | 0.82 | 0.884 | 0.968 | 1.11 | 1.11 | 0.95 | 0.907
CAL-12T | 1.15 | 0.846 | 0.967 | 0.93 | 1.03 | 0.995 | 0.976 | 1.03 | 1.01 | 0.931 | 1.08 | 0.955 | 0.936 | 0.723 | 0.603
COR-L23 | 1.15 | 0.912 | 1.11 | 0.923 | 0.982 | 1.01 | 1.08 | 0.981 | 0.964 | 0.949 | 1.19 | 0.92 | 0.879 | 0.74 | 0.626
COR-L 105 | 1.2 | 0.882 | 0.901 | 0.984 | 0.827 | 0.861 | 0.93 | 0.935 | 1.1 | 0.993 | 1.08 | 1.05 | 0.954 | 0.463 | 0.563
Calu-6 | 1.1 | 0.971 | 0.984 | 0.998 | 1.04 | 0.995 | 0.979 | 1.04 | 1.09 | 1.01 | 0.97 | 0.842 | 0.791 | 0.505 | 0.347
ChaGo-K-1 | 1.05 | 0.96 | 0.96 | 1.06 | 1.07 | 0.988 | 1.09 | 0.983 | 0.975 | 0.916 | 0.977 | 1.04 | 1.01 | 0.865 | 0.789
EBC-1 | 1.29 | 0.984 | 1.01 | 0.963 | 0.933 | 0.949 | 0.987 | 0.991 | 1.03 | 0.838 | 1.05 | 0.966 | 0.939 | 0.794 | 0.611
EKVX | 1.08 | 0.994 | 1.05 | 1.01 | 1.32 | 0.971 | 0.968 | 0.876 | 1 | 0.952 | 1.11 | 0.988 | 1.09 | 0.573 | 0.796
EMC-BAC-2 | 1.02 | 1.05 | 1 | 1.02 | 1.09 | 1 | 1.2 | 1.01 | 0.954 | 0.863 | 0.94 | 0.885 | 0.639 | 0.467 | 0.236
EPLC-272H | 1.04 | 0.96 | 1 | 0.905 | 1.1 | 0.929 | 0.899 | 1.01 | 0.7 | 0.837 | 0.895 | 0.734 | 0.688 | 0.469 | 0.356
H3255 | 1 | 0.973 | 0.895 | 0.986 | 1.22 | 1.05 | 0.981 | 0.96 | 0.968 | 0.933 | 1 | 1.05 | 1.03 |  | 0.67
HARA | 1.28 | 0.977 | 1.04 | 1.05 | 1.21 | 1.02 | 0.948 | 0.811 | 1.19 | 0.754 | 1.07 | 0.982 | 0.949 | 0.693 | 0.584
HCC-15 | 1.17 | 0.98 | 0.931 | 0.972 | 0.998 | 0.993 | 0.99 | 0.936 | 0.74 | 0.915 | 0.99 | 1.02 | 1.01 | 0.819 | 0.684
HCC-44 | 0.953 | 0.922 | 0.998 | 0.899 | 0.968 | 1.03 | 1.1 | 1.1 | 0.84 | 0.983 | 0.971 | 0.919 | 1.02 | 1.05 | 0.992
